Test results as given in PMC3264577, “RINL, Guanine Nucleotide Exchange Factor Rab5-Subfamily, Is Involved in the EphA8-Degradation Pathway with Odin” (PLoS ONE, 2012).

T1: Rab5b (Homo sapiens, UniProt P61020)
T1 construct: GST fusion from E. coli (in vitro); myc-tagged in HEK293T (cell assay)
T1 sequence (P61020 1-215): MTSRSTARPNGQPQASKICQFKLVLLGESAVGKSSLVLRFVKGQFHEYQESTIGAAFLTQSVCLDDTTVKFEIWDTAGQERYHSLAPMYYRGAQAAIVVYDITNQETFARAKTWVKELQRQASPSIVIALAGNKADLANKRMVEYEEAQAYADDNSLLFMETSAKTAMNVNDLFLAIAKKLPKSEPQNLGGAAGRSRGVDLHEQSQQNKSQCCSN

T2: Rab22 (Homo sapiens, UniProt Q9UL26)
T2 sequence (Q9UL26 1-194): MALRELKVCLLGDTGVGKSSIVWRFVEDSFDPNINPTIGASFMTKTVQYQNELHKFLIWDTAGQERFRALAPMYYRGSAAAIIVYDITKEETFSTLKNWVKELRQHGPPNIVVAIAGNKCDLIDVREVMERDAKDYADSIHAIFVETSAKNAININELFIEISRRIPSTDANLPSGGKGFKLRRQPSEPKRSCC

T3: Rab21 (Homo sapiens, UniProt Q9UL25)
T3 sequence (Q9UL25 1-225 limits assumed): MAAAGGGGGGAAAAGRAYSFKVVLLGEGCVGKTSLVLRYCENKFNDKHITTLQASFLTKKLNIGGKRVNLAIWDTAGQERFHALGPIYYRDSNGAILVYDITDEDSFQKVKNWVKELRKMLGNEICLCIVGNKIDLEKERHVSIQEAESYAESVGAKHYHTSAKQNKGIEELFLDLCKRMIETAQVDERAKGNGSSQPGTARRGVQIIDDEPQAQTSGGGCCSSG

T4: Rab11a (Homo sapiens, UniProt P62491)
T4 construct: myc-tagged, expressed in HEK293T, immunoprecipitated
T4 sequence (P62491 2-213): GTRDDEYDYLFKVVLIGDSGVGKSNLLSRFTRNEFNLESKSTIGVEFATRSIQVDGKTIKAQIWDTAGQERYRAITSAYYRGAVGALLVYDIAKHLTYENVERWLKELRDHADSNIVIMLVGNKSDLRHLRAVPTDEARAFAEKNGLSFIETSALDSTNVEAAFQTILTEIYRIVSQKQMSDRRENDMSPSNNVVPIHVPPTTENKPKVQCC

T5: Rab3a (Homo sapiens, UniProt P20336)
T5 construct: myc-tagged, expressed in HEK293T, immunoprecipitated
T5 sequence (P20336 1-220): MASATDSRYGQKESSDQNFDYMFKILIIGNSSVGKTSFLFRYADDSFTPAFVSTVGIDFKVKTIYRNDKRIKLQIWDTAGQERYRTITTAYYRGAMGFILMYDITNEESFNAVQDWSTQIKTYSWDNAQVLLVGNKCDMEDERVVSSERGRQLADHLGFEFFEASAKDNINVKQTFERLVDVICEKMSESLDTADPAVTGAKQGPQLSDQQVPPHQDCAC

T6: Rab31 (Homo sapiens, UniProt Q13636)
T6 sequence (Q13636 1-195): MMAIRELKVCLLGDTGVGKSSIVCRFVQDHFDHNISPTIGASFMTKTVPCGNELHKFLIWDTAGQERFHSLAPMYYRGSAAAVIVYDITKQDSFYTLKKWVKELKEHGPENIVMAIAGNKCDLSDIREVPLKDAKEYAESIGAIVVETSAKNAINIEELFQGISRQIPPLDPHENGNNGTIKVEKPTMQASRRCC

B1: FLAG-RIN3 (natural protein, UniProt Q8TB24 1-985, looked up)
chain: MIRHAGAPARGDPTGPVPVVGKGEEEEEEDGMRLCLPANPKNCLPHRRGISILEKLIKTCPVWLQLSLGQAEVARILHRVVAGMFLVRRDSSSKQLVLCVHFPSLNESSAEVLEYTIKEEKSILYLEGSALVFEDIFRLIAFYCVSRDLLPFTLRLPQAILEASSFTDLETIANLGLGFWDSSLNPPQERGKPAEPPRDRAPGFPLVSSLRPTAHDANCACEIELSVGNDRLWFVNPIFIEDCSSALPTDQPPLGNCPARPLPPTSDATSPTSRWAPRRPPPPPPVLPLQPCSPAQPPVLPALAPAPACPLPTSPPVPAPHVTPHAPGPPDHPNQPPMMTCERLPCPTAGLGPLREEAMKPGAASSPLQQVPAPPLPAKKNLPTAPPRRRVSERVSLEDQSPGMAAEGDQLSLPPQGTSDGPEDTPRESTEQGQDTEVKASDPHSMPELPRTAKQPPVPPPRKKRISRQLASTLPAPLENAELCTQAMALETPTPGPPREGQSPASQAGTQHPPAQATAHSQSSPEFKGSLASLSDSLGVSVMATDQDSYSTSSTEEELEQFSSPSVKKKPSMILGKARHRLSFASFSSMFHAFLSNNRKLYKKVVELAQDKGSYFGSLVQDYKVYSLEMMARQTSSTEMLQEIRTMMTQLKSYLLQSTELKALVDPALHSEEELEAIVESALYKCVLKPLKEAINSCLHQIHSKDGSLQQLKENQLVILATTTTDLGVTTSVPEVPMMEKILQKFTSMHKAYSPEKKISILLKTCKLIYDSMALGNPGKPYGADDFLPVLMYVLARSNLTEMLLNVEYMMELMDPALQLGEGSYYLTTTYGALEHIKSYDKITVTRQLSVEVQDSIHRWERRRTLNKARASRSSVQDFICVSYLEPEQQARTLASRADTQAQALCAQCAEKFAVERPQAHRLFVLVDGRCFQLADDALPHCIKGYLLRSEPKRDFHFVYRPLDGGGGGGGGSPPCLVVREPNFL
notes: this molecule is used for it; source: HEK293T, transfected, in lysate

Legend:
Rab5b = target: T1, Rab5b; experiment: […] metabolic labelling, anti-myc immunoprecipitation, TLC of bound nucleotides; type: cell-based; settings: HEK293T cells, 4 h 32Pi; mock or GEF co-expression; labelled compound
Rab22 [1] = target: T2, Rab22; experiment: as above; type: cell-based; design: gene RAB22A; myc-tagged in HEK293T (cell assay); settings: HEK293T cells, 4 h 32Pi; mock or GEF co-expression; labelled compound
Rab7a = target: T7, Rab7a (Homo sapiens, UniProt P51149); experiment: as above; type: cell-based; settings: HEK293T cells, mock or RINL co-expression, labelled compound
T7 construct: myc-tagged, expressed in HEK293T, immunoprecipitated

Rab21 [2] = target: T3, Rab21; experiment: as above; type: cell-based; design: myc-tagged in HEK293T (cell assay); settings: HEK293T cells, 4 h 32Pi; mock or GEF co-expression; labelled compound
Rab11a = target: T4, Rab11a; experiment: as above; type: cell-based; settings: HEK293T cells, mock or RINL co-expression, labelled compound
Rab3a = target: T5, Rab3a; experiment: as above; type: cell-based; settings: HEK293T cells, mock or RINL co-expression, labelled compound
Rab31 [3] = target: T6, Rab31; experiment: as above; type: cell-based; design: myc-tagged in HEK293T (cell assay); settings: HEK293T cells, 4 h 32Pi; mock or GEF co-expression; labelled compound
Rab22 [4] = target: T2, Rab22; experiment: […]GTPgammaS filter binding time course; design: gene RAB22A; GST fusion from E. coli (in vitro); myc-tagged in HEK293T (cell assay); settings: 1 µM [35S]GTPgammaS, 30 °C; with or without FLAG-RINL or Rabex-5; labelled compound
Rab31 [5] = target: T6, Rab31; experiment: […]GTPgammaS filter binding time course; design: GST fusion from E. coli (in vitro); myc-tagged in HEK293T (cell assay); settings: 1 µM [35S]GTPgammaS, 30 °C; with or without FLAG-RINL or Rabex-5; labelled compound
Rab21 [6] = target: T3, Rab21; experiment: […]GTPgammaS filter binding time course; design: GST fusion from E. coli (in vitro); myc-tagged in HEK293T (cell assay); settings: 1 µM [35S]GTPgammaS, 30 °C; with or without FLAG-RINL or Rabex-5; labelled compound
[7] = target: the molecule itself; experiment: not stated; data not shown; tetramers composed of anti-parallel linkages of two parallel dimers

T7 sequence (P51149 2-207): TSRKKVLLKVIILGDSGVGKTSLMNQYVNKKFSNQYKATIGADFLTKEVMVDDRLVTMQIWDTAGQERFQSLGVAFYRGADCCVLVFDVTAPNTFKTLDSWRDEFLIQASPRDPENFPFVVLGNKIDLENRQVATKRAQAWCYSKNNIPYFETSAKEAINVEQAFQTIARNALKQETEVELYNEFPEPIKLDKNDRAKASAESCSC

Molecule | 32Pi metabolic labelling, anti-myc immunoprecipitation, TLC of bound nucleotides (Rab5b) | 32Pi metabolic labelling, anti-myc immunoprecipitation, TLC of bound nucleotides (Rab22 [1]) | 32Pi metabolic labelling, anti-myc immunoprecipitation, TLC of bound nucleotides (Rab7a) | 32Pi metabolic labelling, anti-myc immunoprecipitation, TLC of bound nucleotides (Rab21 [2]) | 32Pi metabolic labelling, anti-myc immunoprecipitation, TLC of bound nucleotides (Rab11a) | 32Pi metabolic labelling, anti-myc immunoprecipitation, TLC of bound nucleotides (Rab3a) | 32Pi metabolic labelling, anti-myc immunoprecipitation, TLC of bound nucleotides (Rab31 [3]) | [35S]GTPgammaS filter binding time course (Rab22 [4]) | [35S]GTPgammaS filter binding time course (Rab31 [5]) | [35S]GTPgammaS filter binding time course (Rab21 [6]) | stoichiometry N [7]
Nc1nc2c(ncn2[C@@H]2O[C@H](COP(=O)(O)OP(=O)(O)O)[C@@H](O)[C@H]2O)c(=O)[nH]1 [GDP] | The radioactivity of GTP and GDP was quantified | The radioactivity of GTP and GDP was quantified | The radioactivity of GTP and GDP was quantified | The radioactivity of GTP and GDP was quantified | The radioactivity of GTP and GDP was quantified | The radioactivity of GTP and GDP was quantified | The radioactivity of GTP and GDP was quantified | – | – | – | –
Nc1nc2c(ncn2[C@@H]2O[C@H](COP(=O)(O)OP(=O)(O)OP(=O)(O)O)[C@@H](O)[C@H]2O)c(=O)[nH]1 [GTP] | Rab5b was present in a GTP-bound form in mock-transfected cells | RINL significantly increased GTP-Rab21, GTP-Rab22, and GTP-Rab31 formation | – | RINL significantly increased GTP-Rab21, GTP-Rab22, and GTP-Rab31 formation | – | The percentages (%) of each GTP-bound Rab member in the metabolically radiolabeled cells are shown | RINL significantly increased GTP-Rab21, GTP-Rab22, and GTP-Rab31 formation | – | – | – | –
Nc1nc2c(ncn2[C@@H]2O[C@H](COP(=O)(O)OP(=O)(O)OP(O)(O)=S)[C@@H](O)[C@H]2O)c(=O)[nH]1 [GTPgammaS] | – | – | – | – | – | – | – | RINL accelerated GTPgammaS binding to Rab22 and Rab31 | RINL accelerated GTPgammaS binding to Rab22 and Rab31 | Rabex-5 strongly, as opposed to RINL, accelerated GTPgammaS binding to Rab21 | –
B1 | – | – | – | – | – | – | – | – | – | – | 4
